Common to all, as to format: in vivo, rat
Series [1] relates to rats fed high fat diet. As to the kind of experiment: Oral glucose tolerance test after a single dose in high fat diet rats. The settings on record: 1 mg/kg oral gavage 15 min before 2 gm/kg glucose load, HF rats.
Description: Data is presented as mean±SEM from number of animals indicated in the parenthesis for each group. […] All experimental procedures were performed under a protocol approved by the IACUC (CV Therapeutics, Inc.) and in accordance with the recommendations set forth in the Guide for the Care and Use of Laboratory Animals published by the National Research Council. Male Sprague-Dawley rats (225-250 gm) with either one or two indwelling catheters (carotid and jugular) were obtained from Charles River Laboratories (Wilmington, Mass.). Animals were housed 1 per cage in a room maintained on a 12 h light/dark cycle (light on 06.00-18.00 h) under constant temperature (22-25° C.) and with ad libitum access to food and water. Rats on normal diet (Chow) were fed standard laboratory chow (12% fat, 60% carbohydrate, and 28% protein) throughout the study, while animals in the high fat (HF) diet group were given a diet (TD88137 from Harlan Teklad, Madison, Wis.) containing 42% fat, 43% carbohydrate, and 15% protein. […] On the day of the experiment, animals were put in metabolic cages and left undisturbed to acclimate to the environment for 1-2 hrs. An infusion set (21 G×¾″, 0.8×19 mm U.T.W., 3½″, 9 cm tubing, volume 0.15 ml) was connected to the arterial catheter for blood sampling. A 1% sodium citrate saline solution was used to flush the lines. A pre-treatment blood sample was obtained from each animal to determine baseline values for glucose, insulin, FFA and TG. Blood samples were collected into plasma and serum separator tubes (Becton Dickinson, Franklin Lakes, N.J.) at pre-determined time points. Oral glucose tolerance test (OGTT) was performed by giving 2 gm/kg of glucose load. Compound A was given via an oral gavage 15 minutes prior to the glucose load. […] Statistical analysis of data from experiments with 2 treatment groups was performed using the unpaired Student's t-test. One way analysis of variance (ANOVA) followed by Newman-Keuls posthoc analysis was used for multiple comparisons. Data form OGTT was analyzed by calculating area under the curve (AUC) using prism graphpad software. […]
Series [2] has as its system awake rats. As to the kind of experiment: Cardiovascular measurements (heart rate, blood pressure) by telemetry in awake rats. As for the experimental part: FIG. 7 presents the time-course of the effect of Compound A on (A) heart rate and (B) mean arterial pressure in awake rats as measured by telemetry. Compound A was given at various does (1, 5, and 25 mg·kg) by oral gavage at time 0. Each data point is the mean of individual values from the number of experiments indicated in parenthesis. The initial transient (10 Minutes) increase in heart rate subsequent to the injection of vehicle or Compound A is due to the stress caused by handling of the animals.
The effects of Compound A on heart rate and blood pressure were determined in a separate group of animals as heart rate is very easily affected in the un-anesthetized animal by animal handling and blood sampling. Rats were instrumented with radiotelemetered transmitters (Data Sciences) at least 3 weeks prior to experimentation. The ECG, blood pressure and temperature were recorded and heart rate calculated using a Dataquest ART Gold system (Version 2.2; Data Sciences Intl). The system consisted of a transmitter, i.e., biopotential sensor (Model TL11M2-C50-PXT), receivers (Model RPC-1), a consolidation matrix (BCM 100), a personal computer (Compaq DeskPro Series 3574) and Dataquest 4 software. Heart rate, blood pressure and temperature were measured at 5-minute intervals. Each recording lasted 10 seconds and all cardiac cycles within this period were averaged.

For series [3], the system named is awake rats. As to the kind of experiment: Serum triglyceride (TG) levels in overnight-fasted awake rats. How it is done: All experimental procedures were performed under a protocol approved by the Institutional Animal Care and Use Committee of CV Therapeutics, Inc., and in accordance with the recommendations set forth in the Guide for the Care and Use of Laboratory Animals published by the National Research Council. Male Sprague-Dawley rats (225-250 gm) with either one or two indwelling catheters (carotid and jugular) were purchased from Charles River Laboratories (Wilmington, Mass.). Animals were housed 1 per cage in a room maintained on a 12 h light/dark cycle (light on 06.00-18.00 h) under constant temperature (22-25° C.) and with ad libitum access to food and water.
The anti-lipolytic effects of Compound A were studied in awake rats. Animals were fasted overnight before experimental use. On the day of the experiment, animals were put in metabolic cages and left undisturbed to acclimate to the environment for 1-2 hrs. An infusion set (21 G×¾″, 0.8×19 mm U.T.W., 3½″, 9 cm tubing, volume 0.15 ml) was connected to the arterial catheter for blood sampling. A 1% sodium citrate saline solution was used to flush the lines. A pre-treatment blood sample was obtained from each animal to determine baseline values for FFA and TG. Compound A was given via oral gavage, sc injection, iv injection, or iv infusion, as described, for each different series of experiments. Blood samples were collected into serum separator tubes (Becton Dickinson, Franklin Lakes, N.J.) at pre-determined times, Blood was allowed to clot, and then centrifuged at 8000 rpm for 4 min at 4° C. The serum was stored at −80° C. and was thawed at 4° C. for determinations of FFA and TG contents.
Compound A was synthesized by the Department of Medicinal and Bio-Organic chemistry of CV Therapeutics, Inc. Sodium citrate and Triton WR1339 were purchased from Sigma (St. Louis, Mo.). Nicotinic acid and PEG 400 were purchased from VWR (by EMD Chemicals). Triton WR 1339 was diluted in warm saline (˜37° C.) with frequent vortexing. Nicotinic acid was dissolved in saline. Compound A was dissolved in PEG 400, and then diluted with distilled water to make a 20% PEG drug solution. Serum FFA and TGs were measured using commercial kits from Wako Chemicals, Richmond, Va. Glucose and Insulin were measured using commercial kits from Wako Chemicals USA (Richmond, Va.).
All data are reported as mean±SEM. Statistical analysis of data from experiments with 2 treatment groups was performed using the unpaired Student's t-test. Two way analysis of variance followed by Bonferroni's test was used for multiple comparisons. Differences among treatment groups were considered to be significant when the probability of their occurrence by chance alone was <0.05.

“Also recorded” adds a separate entry of the source.

For the molecule `O[C@@H]1[C@H](O)[C@@H](CSc2ccccc2F)O[C@H]1n1cnc2c(N[C@@H]3CCC[C@H]3O)ncnc21` [Compound A, 2-{6-[((1R,2R)-2-hydroxycyclopentyl)amino]purin-9-yl}(4S,5S,2R,3R)-5-[(2-fluorophenylthio)methyl]oxolane-3,4-diol], the “total glucose response area in OGTT” value in series [1] is recorded as “no differences”. In addition, the “total insulin response area (AUC) in OGTT” value in series [1] is listed as “significantly (p<0.05) decreased; also recorded: no different than the insulin response of chow-fed rats given vehicle”. The “decrease in heart rate (calculated as area under the curve)” value in series [2] (25 mg/kg oral gavage) is on record as 13±1%. The “effect on heart rate on increasing the dose” value in series [2] (50 mg/kg (data not shown)) is recorded as “no further decrease”. For the same molecule, in series [2] (1 and 5 mg/kg oral gavage), the “effect on heart rate” value is “did not have a significant effect”. Also, the “effect on blood pressure” value in series [2] (at the doses used (1, 5, 25 mg/kg oral gavage)) is “did not have any significant effect”. The “decrease in TG levels” value in series [3] (2.5 mg/kg oral gavage) came out at 36%. Also, the “serum TG level” value in series [3] (2.5 mg/kg oral gavage, from 54±4 mg/dl, p<0.05) came out at 35 ± 4 mg/dL; in series [3] (5 mg/kg oral gavage, p<0.01), 32 ± 4 mg/dL; in series [3] (10 mg/kg oral gavage, p<0.01), 23 ± 1 mg/dL. The “reduction in TG levels compared to vehicle-treated rats” value in series [3] (5 mg/kg oral gavage) is given as 41%; in series [3] (10 mg/kg oral gavage), 58%. In addition, the “reduction of serum triglyceride levels, dose dependence” value in series [3] (2.5, 5, 10 mg/kg oral gavage) is on record as “dose-dependent manner”.
